Data as given in patent publication US7749491B2, “Compounds and methods to enhance rAAV transduction” (priority 2003, dated 2010).

How the values were obtained:
[1] = system: polarized human bronchial epithelial cells; type: cell-based; settings: for rAAV transduction from the apical surface: apical infection, data not shown; for rAAV transduction from the basolateral surface with ubiquitin ligase inhibitors: both inhibitors combined, 2 mM pretreatment 60 minutes, then 0.2 mM
Experimental: Primary culture of human bronchial epithelia and reagents utilized. Primary human airway epithelial cells were collected by enzymatic digestion of bronchial samples from lung transplants, as previously described (Kondo et al., 1991; Zabner et al., 1996). Isolated primary airway cells were seeded at a density of 5×10^5 cells/cm^2 onto collagen-coated Millicell-HA culture inserts (Millipore Corp., Bedford, Mass.). Primary cultures were grown at the air-liquid interface for more than 2 weeks, by which time differentiation into a mucociliary epithelium occurs. The culture medium, used to feed only the basolateral side of the cells, contained 49% DMEM, 49% Ham's F12 and 2% Ultraser G (BioSepra, Cedex, France). Dimethyl Sulphoxide (DMSO), camptothecin (Camp), etoposide (Etop), aphidicolin (Aphi), hydroxyurea (HU) and genistein (Geni) were purchased from Sigma (St. Louis, Mo.). Tripeptidyl aldehyde proteasome inhibitors N-Acetyl-L-Leucyl-L-Leucyl-Norleucine (LLnL) and benzyloxycarbonyl-L-leucyl-L-leucyl-L-leucinal (Z-LLL) were purchased from Calbiochem-Novabiochem Corporation (La Jolla, Calif.). Ubiquitin ligase (E3) inhibitors were obtained from Bachem Bioscience Inc. (King of Prussia, Pa.). Anti-AAV capsid monoclonal antibody (Anti-VP1, 2 and 3) was purchased from American Research Products (Belmont, Mass.) and anti-ubiquitin antibody was purchased from Santa Cruz Biotechnology Inc. (Santa Cruz, Calif.).
Transduction of polarized airway epithelial cells and primary human fibroblasts. rAAV infection of fully differentiated bronchial cells was performed as described in Duan et al. (1998). For infections from the apical surface of the airway cells, 5 μl rAAV was mixed with 50 μl of culture media and applied directly onto the apical compartment of Millicell inserts (MOI=10,000 particles/cell). During apical infection, the basolateral side of the Millicell was continuously bathed in culture media. Gene transfer to the basal side was performed by inverting Millicell inserts and applying viral vector to the bottom of the supporting filter membrane in a 50 μl volume for 2 hours. Subsequently, Millicell inserts were returned to the upright position, in the continued presence of the original viral inoculum plus an additional 450 μl of media. For both apical and basolateral infections, rAAV containing media was removed after 24 hours and replaced with either fresh culture media (for the basal side) or exposed to air (for the apical side). To test the effect of different agents on the efficiency of AAV transduction in polarized airway cells, 1 μl of each solution was mixed with AAV prior to infection of airway epithelia. Agents were usually presented during the 24 hours AAV infection period unless indicated otherwise. Most of the agents were dissolved in DMSO except for hydroxyurea (dissolved in phosphate buffered saline), H-Leu-Ala-OH (dissolved in 0.9% glacial acetic acid) and H-His-Ala-OH (dissolved in 50% methanol). The working concentrations of the agents were as follows: 0.1 μM camptothecin, 10 μM etoposide, 5 μg/ml aphidicolin, 40 mM hydroxyurea, 50 μM genistein, 40 μM LLnL and 4 μM Z-LLL. When the ubiquitin ligase (E3) inhibitors (H-Leu-Ala-OH and H-His-Ala-OH) were used, airway cells were pretreated with a combination of both inhibitors at a final concentration of 2 mM for 60 minutes prior to infection, followed by the continued presence of inhibitor (0.2 mM) during the entire 24 hours infection period from the basolateral surface. Studies involving EGTA treatment were performed by transiently treating the apical membrane of polarized airway epithelia with 3 mM EGTA in water for 10 minutes (Duan et al., 1998). Following hypotonic EGTA treatment, cultures were washed twice with culture medium and infected with rAAV in the presence or absence of 40 μM LLnL. Human primary fibroblast cells (P4) were maintained in 10% fetal bovine serum (FBS), 1% penicillin and streptomycin, and 89% DMEM. […]

HeLa cells = experiment: AAV2 FLAG-Luc transduction of HeLa cells (luciferase screen of agents); type: cell-based; settings: for increase of transduction efficiency: MOI of 100, 2 hours infection, at the doses tested; for relative potency of anthracyclines: 0.6, 3 and 6 μg/mL
From the text: A. To screen for agents that enhance rAAV transduction, any number of cells can be used. A range of concentrations of the agent to be tested can be determined based on, for instance desirable profiles of the agent, desirable toxicity profiles of the agent and/or concentration of the agents employed in vivo. The usefulness of the cell type chosen for the screen can be confirmed by testing compounds, e.g., proteosome inhibitors described in Example 1 such as LLnL and ZLL which are known to increase rAAV transduction. For example, a AAV2 FLAG-Luc vector was employed to transduce HeLa, ferret fibroblasts, IB3 and Huh (liver) cells in the presence or absence of the proteosome inhibitor MG132. MG132 was confirmed to enhance AAV transduction in all cell types tested: HeLa cell transduction was enhanced about 500-fold at 80 μM, and 200-fold at 40 μM, MG132; ferret fibroblast cell transduction was enhanced about 200-fold at 20 μM, and 17-fold at 4 μM, MG132; IB3-1 cell transduction was enhanced about 30 to 70-fold at 20 to 80 μM MG132; and Huh-7 cell transduction was enhanced about 15-fold at 20 to 80 μM MG132. There was no difference in rAAV transduction efficiency in HeLa cells when either DMSO or ETOH was used as a vehicle for MG132. B. HeLa cells were selected to screen for additional agents that enhance rAAV transduction, although any cell strain or line; or primary cells, may be employed. […] The range of concentrations of the agents to be tested were selected based on solubility profiles, toxicity profiles and/or concentrations previously employed in vivo.
HeLa cells were infected for 2 hours with an MOI of 100 rAAV in the presence of agents, e.g., ritonavir (Norvir) (1, 10 and 100 μM), cyclosporin A (2.5, 25 and 250 μg/ml), epoxomicin (1, 10 and 50 μM), alcacinomycin A (5, 50 or 500 μM), chymostatin (1, 10 and 100 μM), bestatin (1, 10 and 100 μM), doxorubicin (adriamycin) (0.1, 1 and 10 μM), camptothecin (camptosar) (1, 10 and 100 μM), eicosapentanoic acid (1, 10 and 100 μM), tannic acid (2, 20, 200 and 2000 μM), simvastatin, prodrug (2, 20 and 200 μM), cisplatin (0.2, 2 and 20 μg/mL), and chloroquine (4, 40 and 400 μM). Forty-eight hours after infection, cells were harvested for analysis. rAAV transduction was measured by removing the media from the cell cultures, adding 100 μL reporter lysis buffer (RLB) and freezing. The supernatant was thawed and transferred to microfuge tubes, freeze thawed an additional 2 times, clarified by centrifugation for 10 minutes and then analyzed for reporter gene expression on the luminometer. Protein was determined by Bradford analysis and results were expressed as relative light units per mg protein (RLU/mg).
Based on results with doxorubicin, a small number of FDA approved anthracyclines were tested for their relative in vitro and in vivo activities on AAV transduction. HeLa cells were infected with 100 ppc AAV2FLAG-Luc for 2 hours in the presence of different anthracyclines, e.g., doxorubicin, daunarubicin (Cerubidine), epirubicin (Ellence™), and idarubicin (Idamycin®), and cells harvested 48 hours later. The anthracyclines were pharmaceutical grade, and prepared according to the manufacturer's instructions. Prior to use, the agents were diluted in sterile water to an equal mass, e.g., 0.6 μg/mL, 3 μg/mL and 6 μg/mL. For example, 3 μg/mL idamycin increased luciferase expression by over 5000-fold while doxorubin increased luciferase expression by 58-fold. Generally, the potency was as follows: idarubicin>daunarubicin>epirubicin>doxorubicin.

COc1cc([C@@H]2c3cc4c(cc3[C@@H](O[C@@H]3O[C@@H]5CO[C@@H](C)O[C@H]5[C@H](O)[C@H]3O)[C@H]3COC(=O)[C@H]23)OCO4)cc(OC)c1O [etoposide]
rAAV transduction from the apical surface [1]: none of these agents facilitated rAAV transduction from the apical surface

CC[C@H](C)C(=O)O[C@H]1C[C@@H](C)C=C2C=C[C@H](C)[C@H](CC[C@@H]3C[C@@H](O)CC(=O)O3)[C@H]21 [lovastatin]
outcome in cell line screening (HeLa cells; HeLa screen): negative results

H-Leu-Ala-OH
rAAV transduction from the basolateral surface with ubiquitin ligase inhibitors [1]: enhanced rAAV transduction from the basolateral surface

CC[C@H](C)[C@H](NC(=O)[C@H]([C@@H](C)CC)N(C)C(C)=O)C(=O)N[C@H](C(=O)N[C@@H](CC(C)C)C(=O)[C@@]1(C)CO1)[C@@H](C)O [epoxomicin]
increase of transduction efficiency (HeLa cells; harvested 48 hours): ≤ 120 fold

CCC(C)(C)C(=O)O[C@H]1C[C@@H](C)C=C2C=C[C@H](C)[C@H](CC[C@@H]3C[C@@H](O)CC(=O)O3)[C@H]21 [simvastatin]
increase of transduction efficiency (HeLa cells; harvested 48 hours): 4 fold

CC[C@@]1(O)C(=O)OCc2c1cc1n(c2=O)Cc2cc3ccccc3nc2-1 [camptothecin]
increase of transduction efficiency (HeLa cells; harvested 48 hours): 15 fold
rAAV transduction from the apical surface [1]: none of these agents facilitated rAAV transduction from the apical surface

H-His-Ala-OH
rAAV transduction from the basolateral surface with ubiquitin ligase inhibitors [1]: enhanced rAAV transduction from the basolateral surface

O=C(OC[C@H]1O[C@@H](OC(=O)c2cc(O)c(O)c(OC(=O)c3cc(O)c(O)c(O)c3)c2)[C@H](OC(=O)c2cc(O)c(O)c(OC(=O)c3cc(O)c(O)c(O)c3)c2)[C@@H](OC(=O)c2cc(O)c(O)c(OC(=O)c3cc(O)c(O)c(O)c3)c2)[C@@H]1OC(=O)c1cc(O)c(O)c(OC(=O)c2cc(O)c(O)c(O)c2)c1)c1cc(O)c(O)c(OC(=O)c2cc(O)c(O)c(O)c2)c1 [tannic acid]
increase of transduction efficiency (HeLa cells; harvested 48 hours): 17 fold

N.N.[Cl][Pt][Cl] [cisplatin]
increase of transduction efficiency (HeLa cells; harvested 48 hours): 16 fold

COc1cccc2c1C(=O)c1c(O)c3c(c(O)c1C2=O)C[C@@](O)(C(C)=O)C[C@@H]3O[C@H]1C[C@H](N)[C@H](O)[C@H](C)O1 [daunarubicin]
relative potency of anthracyclines (HeLa cells): idarubicin>daunarubicin>epirubicin>doxorubicin

CC(=O)[C@]1(O)Cc2c(O)c3c(c(O)c2[C@@H](O[C@H]2C[C@H](N)[C@H](O)[C@H](C)O2)C1)C(=O)c1ccccc1C3=O [idamycin, idarubicin]
increase of luciferase expression (HeLa cells; 3 μg/mL, 100 ppc AAV2FLAG-Luc 2 hours, harvested 48 hours): over 5000 fold
relative potency of anthracyclines (HeLa cells): idarubicin>daunarubicin>epirubicin>doxorubicin

O=c1c(-c2ccc(O)cc2)coc2cc(O)cc(O)c12 [genistein]
rAAV transduction from the apical surface [1]: none of these agents facilitated rAAV transduction from the apical surface
